Laboratory results taken from patent US20210341448A1, “SCREENING METHOD FOR THERAPEUTIC DRUG OR PROPHYLACTIC DRUG FOR TAUOPATHY AND DIAGNOSTIC METHOD FOR TAUOPATHY” (National Center for Geriatrics and Gerontology, priority 2018, published 2021).

Tests used:
NMDAR [1] = biological target: T1, NMDAR (Homo sapiens, UniProt Q05586); experiment: Measurement of calcium influx through NMDAR into NT2-N cells; type: cell-based; settings: Cal-520, NT2-N cells, antagonist 50 μM
T1 construct: endogenous in cells; host or cells: NT2-N neurons differentiated from NTERA-2 cl.D1 [NT2/D1] cells (ATCC CRL-1973)
Description: Cultured neurons expressing NMDARs retaining physiological functions were prepared by the following procedure to evaluate the NMDAR activation ability of the tau oligomer. The NTERA-2 cl.D1[NT2/D1] cells (ATCC CRL-1973) (hereinafter described as “NT2 cell”), which are derived from a human pluripotent embryonic cancer, were adhesively cultured on 10-cm plastic dish in maintenance culture medium (high glucose DMEM (Sigma-Aldrich, D6429), 10% FBS, 100 U/ml penicillin/streptomycin) under the conditions of 37° C. and 5% CO2 for 3 to 4 days until the confluency stage was attained. The NT2 cells were detached using Accutase (Innovative Cell Technologies, #AT104), were passaged, and were maintained over a period of 50 days. The medium was replaced 3 times a week.
The maintenance-cultured NT2 cells were dispersed in a low attachment petri dish (STAR SDish9015, RIKAKEN CO., LTD.) in a concentration of 1.5×10^6 to 2.5×10^6/dish, suspension-cultured under the conditions of 37° C. and 5% CO2 on a shaker (100 rpm), and 1 day later were induced to differentiate by adding 1 μM of all-trans-retinoic acid (abcam), to thereby form spheroids. 14 days later, the spheroids were collected, seeded in a 10-cm dish coated with 5 μg/ml of poly-D-lysin (PDL) (Sigma-Aldrich)/Laminin (LAM) (iMatrix-511, Nippi Inc.) and adhesively cultured under the conditions of 37° C. and 5% CO2. From the following day, the culture was carried out by adding 3 kinds of cell division inhibitors (10 μM of uridine, 10 μM of floxuridine, and 1 μM of AraC). […]
For analysis, 5 to 10 regions of the visual field of the NT2-N cells positioned in the system were manually set and the fluorescence intensities were recorded for each region, for Cal-520, every 1 minute for 1 hour continuously at excitation wavelength 480 nm/fluorescence emission wavelength 520 nm, and for Fluo-8, every 2 seconds for 5 minutes continuously at excitation wavelength 480 nm/fluorescence emission wavelength 520 nm. […]

membrane protein (NMDAR) = experiment: Membrane protein-based sandwich ELISA; type: binding, mouse; settings: data not shown
Description: Pellets of the membrane protein obtained from tau knockout brain by the procedure of the above (7-1) were dissolved in 2% cholic acid or 1% deoxycholate/buffer (50 mM of HEPES, 150 mM of NaCl, pH 7.4), and the solution was centrifuged at 4° C., 150,000×g for 30 minutes to thereby collect the supernatant to use as a membrane protein solution. The obtained membrane protein solution was applied to an ELISA plate (Sumitomo Bakelite Co., Ltd., MS-8596F) and incubated at 4° C. for 60 minutes to thereby coat the plate with the membrane protein. After washing with wash solution (0.004 to 0.008% MNG-3, 50 mM of HEPES, pH 7.4), blocking was done by adding 1% FBS-containing wash solution and incubating at 4° C. for 60 minutes. The solvent of the HT-tau oligomer sample prepared in the above (1-4) was replaced with the wash solution using a protein concentrator (10K MWCO, Pierce, 88526) to thereby prepare a tau oligomer solution of 10^−16 to 10^−6 g/ml. These solutions were applied to the plate and incubated at 4° C. for 15 to 60 minutes. Then, the plate was washed thoroughly with the wash solution and a 5% skim milk-containing wash solution was added, followed by incubating at room temperature for 30 minutes to thereby block the protein. After washing using the wash solution, an anti-HaloTag antibody/wash solution (1:1000 dilution) was added and incubated at room temperature for 30 minutes. Subsequently, the plate was washed with the wash solution, an HRP-labelled secondary antibody/wash solution (Invitrogen, A27036) (1:5000 dilution) was added and incubated at room temperature for 30 minutes. Then, chromogenic reactions were carried out using an Ultra TMB solution (Thermo Fisher Scientific, 34028) to detect the tau oligomers bound to the membrane protein.

NT2-N cells = experiment: Adhesion activity of tau oligomers to NT2-N cell surface (fluorescence microscopy); type: cell-based, human; settings: on ice 30 minutes, no membrane permeabilization
Description: Cal-520 AM was loaded to the NT2-N cells prepared in the above (4-1) by the procedure of the above (4-2), exposed to the tau oligomer sample (10 μl/ml) prepared in the above (1-3) and incubated on ice for 30 minutes. Subsequently, the cells were washed 3 times with DPBS(−) (137 mM of NaCl, 2.68 mM of KCl, 1.47 mM of KH2PO4, 8.06 mM of Na2HPO4) and fixed with 4% paraformaldehyde at room temperature for 15 minutes. After thorough washing with DPBS(−) (10 minutes×3 times), blocking was done with 1% BSA and 3% donkey serum/DPBS for 30 minutes. Then, the anti-phosphorylated tau antibody (anti-pTau (paired pS409, pS412, pS413), AnaSpec, #AS-55416) (1:1500 dilution) as the primary antibody was reacted at room temperature for 1 hour, and Alexa594-labelled anti-mouse IgG (Jackson Immuno Research, #711-585-152) (1:1500 dilution) as a secondary antibody was reacted at room temperature for 30 minutes, to thereby carry out immunostaining. The stained cells were observed using a fluorescence microscope (BZ-X710, Keyence Corporation).
The HT-tau oligomer sample prepared in the above (1-4), instead of the tau oligomer sample prepared in the above (1-3), was exposed to the NT2-N cells by the same procedure as in the above (5-1). After thorough washing, fluorescence microscopic observation was carried out.

NMDAR complex = biological target: T2, NMDAR complex (Mus musculus, UniProt P35436+P35438+Q01097); experiment: Far-western blot of HT-tau oligomer on NMDAR complex; type: binding; settings: anti-HaloTag detection
T2 construct: from tissue
T2 sequence (P35436 23-1464, other chains not shown): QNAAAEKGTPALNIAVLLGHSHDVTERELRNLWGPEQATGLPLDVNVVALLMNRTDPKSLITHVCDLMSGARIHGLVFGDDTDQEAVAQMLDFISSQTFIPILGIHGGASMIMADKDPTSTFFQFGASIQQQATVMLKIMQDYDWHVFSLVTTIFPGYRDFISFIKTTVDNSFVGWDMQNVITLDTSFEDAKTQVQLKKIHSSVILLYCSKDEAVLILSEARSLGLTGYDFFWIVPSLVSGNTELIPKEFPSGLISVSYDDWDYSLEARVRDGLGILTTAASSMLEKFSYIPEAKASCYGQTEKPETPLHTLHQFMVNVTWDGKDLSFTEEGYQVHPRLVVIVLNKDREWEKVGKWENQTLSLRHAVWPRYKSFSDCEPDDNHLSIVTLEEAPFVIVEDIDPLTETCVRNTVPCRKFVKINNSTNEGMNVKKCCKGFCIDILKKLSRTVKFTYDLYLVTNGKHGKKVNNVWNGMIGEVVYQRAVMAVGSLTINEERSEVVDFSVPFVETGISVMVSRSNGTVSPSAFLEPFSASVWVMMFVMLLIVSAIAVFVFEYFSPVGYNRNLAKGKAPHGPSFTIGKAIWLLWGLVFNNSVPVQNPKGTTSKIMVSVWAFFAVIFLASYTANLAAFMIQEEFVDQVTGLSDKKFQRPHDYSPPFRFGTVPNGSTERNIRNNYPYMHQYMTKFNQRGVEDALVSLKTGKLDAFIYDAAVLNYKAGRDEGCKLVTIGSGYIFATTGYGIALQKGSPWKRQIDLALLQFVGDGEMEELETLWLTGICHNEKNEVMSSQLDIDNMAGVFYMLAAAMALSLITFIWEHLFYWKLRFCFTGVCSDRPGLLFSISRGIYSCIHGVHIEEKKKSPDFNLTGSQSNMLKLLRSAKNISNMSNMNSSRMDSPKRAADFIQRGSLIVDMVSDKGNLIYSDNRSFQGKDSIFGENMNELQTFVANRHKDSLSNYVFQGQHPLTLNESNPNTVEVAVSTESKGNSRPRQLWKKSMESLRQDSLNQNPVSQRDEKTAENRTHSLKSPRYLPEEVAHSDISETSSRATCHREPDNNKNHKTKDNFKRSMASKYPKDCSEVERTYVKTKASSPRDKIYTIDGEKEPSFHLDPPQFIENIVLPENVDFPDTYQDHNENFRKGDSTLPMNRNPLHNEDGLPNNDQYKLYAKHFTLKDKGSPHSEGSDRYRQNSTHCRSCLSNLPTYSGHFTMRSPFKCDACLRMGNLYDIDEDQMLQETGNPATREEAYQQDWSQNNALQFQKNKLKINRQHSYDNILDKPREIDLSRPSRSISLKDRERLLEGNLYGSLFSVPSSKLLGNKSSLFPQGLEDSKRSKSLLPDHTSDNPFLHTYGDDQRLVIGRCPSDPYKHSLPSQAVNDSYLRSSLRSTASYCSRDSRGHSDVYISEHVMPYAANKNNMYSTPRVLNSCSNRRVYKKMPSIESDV
T2 sequence (Q01097 27-1482, other chains not shown): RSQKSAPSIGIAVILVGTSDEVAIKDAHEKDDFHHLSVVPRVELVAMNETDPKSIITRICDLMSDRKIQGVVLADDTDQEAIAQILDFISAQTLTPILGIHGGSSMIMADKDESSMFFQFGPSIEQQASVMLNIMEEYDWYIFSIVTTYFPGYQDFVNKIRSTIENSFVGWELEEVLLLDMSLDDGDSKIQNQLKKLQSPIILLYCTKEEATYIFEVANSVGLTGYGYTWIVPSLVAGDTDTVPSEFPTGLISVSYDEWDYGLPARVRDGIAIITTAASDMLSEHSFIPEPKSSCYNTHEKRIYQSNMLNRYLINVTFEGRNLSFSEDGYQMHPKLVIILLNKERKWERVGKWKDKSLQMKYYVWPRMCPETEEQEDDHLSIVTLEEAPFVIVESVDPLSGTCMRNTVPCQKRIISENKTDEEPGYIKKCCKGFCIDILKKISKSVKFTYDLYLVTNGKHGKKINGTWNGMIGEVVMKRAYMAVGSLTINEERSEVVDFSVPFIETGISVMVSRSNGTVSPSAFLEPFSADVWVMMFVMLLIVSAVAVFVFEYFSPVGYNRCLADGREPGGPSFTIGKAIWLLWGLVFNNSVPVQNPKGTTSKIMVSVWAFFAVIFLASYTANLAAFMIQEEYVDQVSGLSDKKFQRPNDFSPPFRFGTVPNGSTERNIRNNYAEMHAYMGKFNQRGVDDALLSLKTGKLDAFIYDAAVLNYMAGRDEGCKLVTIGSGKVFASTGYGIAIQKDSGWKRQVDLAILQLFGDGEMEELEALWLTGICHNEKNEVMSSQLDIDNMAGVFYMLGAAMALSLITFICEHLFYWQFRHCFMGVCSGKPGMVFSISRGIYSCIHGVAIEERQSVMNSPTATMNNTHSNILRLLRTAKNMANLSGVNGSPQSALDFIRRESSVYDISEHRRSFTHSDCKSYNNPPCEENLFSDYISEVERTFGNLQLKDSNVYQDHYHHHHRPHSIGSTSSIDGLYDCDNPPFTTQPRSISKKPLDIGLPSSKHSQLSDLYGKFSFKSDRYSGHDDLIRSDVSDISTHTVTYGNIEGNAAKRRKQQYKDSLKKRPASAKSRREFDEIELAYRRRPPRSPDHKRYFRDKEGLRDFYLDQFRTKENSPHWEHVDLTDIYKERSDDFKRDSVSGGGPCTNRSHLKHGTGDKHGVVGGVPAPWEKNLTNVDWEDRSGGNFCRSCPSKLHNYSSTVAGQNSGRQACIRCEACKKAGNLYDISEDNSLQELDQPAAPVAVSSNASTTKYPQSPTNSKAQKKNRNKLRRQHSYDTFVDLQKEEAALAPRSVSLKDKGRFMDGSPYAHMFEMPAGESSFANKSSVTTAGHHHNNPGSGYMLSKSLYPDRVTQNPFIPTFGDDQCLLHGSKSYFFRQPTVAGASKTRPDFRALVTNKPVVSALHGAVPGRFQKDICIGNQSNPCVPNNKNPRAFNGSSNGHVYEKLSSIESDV
Excerpt: The membrane protein prepared by the procedure of the above (7-1) was applied to blue native PAGE (NativePAGE™ 3-12% Bis-Tris Protein Gel (Thermo Fisher Scientific, #BN1003BOX); NativePAGE™ Sample Prep Kit (Thermo Fisher Scientific, #BN2008); and NativePAGE™ Running Buffer Kit (Thermo Fisher Scientific, #BN2007) were used) to thereby obtain crude purified NMDAR (complex of a NMDAR4 tetramer and scaffolding proteins such as PSD95, hereinafter simply described as “NMDAR complex”). The NMDAR complex was transferred from the gel after electrophoresis to PVDF membrane (Merck Millipore, #IPVH00010) (transcription buffer: 25 mM of Tris, 192 mM of glycine, 0.1% SDS, 10% Methanol, pH 8.0). […] Subsequently, the membrane was washed, and the tau oligomer adsorbed onto the PVDF membrane was detected by an anti-HaloTag antibody (Promega Corporation, #G928A) (1:1500 dilution) and an HRP-labelled secondary antibody (Jackson Immuno Research, #111-035-144). Additionally, in a replication experiment carried out in parallel, the NMDAR complex was detected by the same procedure without the exposing step to the tau oligomer sample and using an anti-NR1 antibody (Merck Millipore, #MAB363) (1:2000 dilution), instead of the anti-HaloTag antibody.

NMDAR [2] = experiment: Dot blot of gel-filtered tau oligomer fractions on NMDAR-containing membrane protein; type: binding, mouse; settings: fractions 7 and 8 compared with fractions 6, 9 and 10
Description: The membrane protein solution prepared by the procedure of the above (7-1) was diluted 16-fold with the above wash buffer and was spotted (1.5 μl/spot) on a nitrocellulose membrane. Then, the membrane was thoroughly dried to thereby obtain a nitrocellulose membrane on which the NMDAR-containing membrane protein was immobilized. On the other hand, a reaction solution before ultracentrifugation to be obtained in the process of preparing the HT-tau oligomer sample of the above (1-4) was fractionated using a gel filtration column (Superdex 200 10/300 GL column, GE Healthcare) (flow rate 0.5 ml/min, fractionated by 1 ml) to thereby obtain tau oligomer fractions in various sizes. Each of the obtained tau oligomer fractions was exposed to the nitrocellulose membrane on which the NMDAR-containing membrane protein was immobilized, to thereby detect the tau oligomers adsorbed onto the nitrocellulose membrane in the same manner as the detection procedure of tau oligomer in the above (7-2).

NMDA receptor = experiment: NMDAR-based sandwich ELISA; type: binding, mouse

NC(CCCP(=O)(O)O)C(=O)O (stereo not shown) [APS, 2-amino-5-phosphonopentanoic acid, reference compound]
increase of the intracellular calcium concentration induced by the tau oligomer, in presence of antagonist (NMDAR [1]): lost

N[C@@H](CCC(=O)O)C(=O)O [glutamate, reference compound]
binding of the tau oligomer at low concentrations in the presence of NMDAR ligand (membrane protein (NMDAR)): reduced

NCC(=O)O [glycine, reference compound]
binding of the tau oligomer at low concentrations in the presence of NMDAR ligand (membrane protein (NMDAR)): reduced

HT-tau oligomer: tau oligomer prepared from tau monomer and HaloTag-fused tau monomer mixed in a ratio of 4:1
adhesion to the cell surface (NT2-N cells): patchy pattern of fluorescence was observed | interaction with NMDAR complex (around 800 kDa and 1100 kDa) (NMDAR complex): interacted with both of them

LMW TauO: comparatively low-molecular-weight tau oligomers contained in gel filtration fractions 7 and 8
binding activity to NMDAR (NMDAR [2]): strong binding activity

conantokin-G: a peptide blocking a ligand-binding site of the NMDA receptor (GEEELQENQELIREKSN) [reference compound]
effect on binding of the tau oligomer to the NMDA receptor (NMDA receptor): inhibited
